Results: patent US10233200B2, “Organomodified monosilyl compound, its preparation and applications thereof” (Momentive Performance Materials Inc., priority 2017, dated 2019)

How the values were obtained:
canola leaf = test: Uptake of [C14]-2,4-D DMA salt into canola leaf; format: in vivo; conditions: no adjuvant compound (0 % wt/vol), 2,4-D alone
Experimental: The uptake of [C^14]-2,4-dichlorophenoxyacetic acid, dimethylamine salt (2,4-D DMA salt) (1% a.e./100 L/ha) was determined in canola at 2 HAT and 24 HAT (Hours After Treatment) according to the method described by Lui, in Pro. 18th Asian-Pacific Weed Sci. Soc. Conf., pp. 561-566. Liu, Z Q; 2001.

[1] = Spreading of a 10 μL droplet of surfactant solution on polystyrene Petri dishes; format: physicochemical; conditions: 10 μL droplet on polystyrene, after 30 seconds, 22 to 25° C., RH 50-70%
Experimental: Spreading was determined by applying a 10 μL droplet, of surfactant solution to polystyrene Petri dishes (Fisher Scientific) and measuring the spread diameter (mm) after 30 seconds, at a relative humidity between 50 and 70% (at 22 to 25° C.). The solution was applied with an automatic pipette to provide droplets of reproducible volume. Deionized water that was further purified with a Millipore filtration system was used to prepare the surfactant solutions.

Spread Diameter ([1]; 0.05 weight % compound) [mm]	Spread Diameter ([1]; 0.1 weight % compound) [mm]	Spread Diameter ([1]; 0.2 weight % compound) [mm]	Molecule	Uptake % (2 HAT) (canola leaf; 2 HAT) [e %]	Uptake % (24 HAT) (canola leaf; 24 HAT) [a %]
–	–	–	CNC.O=C(O)COc1ccc(Cl)cc1Cl [2,4-D alone, 2,4-dichlorophenoxyacetic acid, dimethylamine salt]	12.1	70.2
10	21	33	(H3C)3CCH2CH2—Si(CH3)2—CH2CH2CH2—O—CH2CH(OH)CH2N^+(CH3)2—CH2CH2CH2OH [Ex. 8, (H3C)3CCH2CH2—Si(CH3)2—CH2CH2CH2—O—CH2CH(OH)CH2N^+(CH3)2—CH2CH2CH2OH [(CH2OH)2(CH3)C—COO^−]]	–	–
